The values that follow come from US8148424B2, “Tocopherols, tocotrienols, other chroman and side chain derivatives and uses thereof” (Research Development Foundation, priority 1998, dated 2012).

In brackets after ≈: the same amount, converted by molar mass. Bounds are passed on as bounds.

The subject of assay [1] is human cancer cells from a wide variety of cell lineages. Kind of assay: Apoptosis induction in a battery of tumor cells. The assay is classed as cell-based. The settings on record: breast, prostate, leukemia/lymphoid, cervical, ovarian, endometrial, colon, lung cell lines. The method, then:
(§1) Cells were cultured at 1.5×10^5 cells/well in 12 well plates. Cells were allowed to adhere overnight, then incubated with novel test compounds at 0.01, 0.1, 1, 5, 10 & 20 μg/mL for 1, 2 and 3 days. After treatment, cells (floating+trypsin released adherent cells) were pelleted, washed and stained with 2 μg/ml DAPI (4′,6-diamidine-2′-phenylindole dihydrochloride) in 100% methanol for 15 minutes at 37° C. and/or 3′-OH ends resulting from DNA fragmentation were detected with the TUNEL (terminal deoxynucleotidyl transferase-mediated dUTP-X 3′ nick end-labeling) technique, and then viewed using a Zeiss ICM 405 microscope. Cells whose nucleus contained clearly condensed or fragmented chromatin or stained for fragmented DNA in the TUNEL assay were scored as apoptotic. Data are presented as percent cells undergoing apoptosis.

A further assay deals with ME-180. Kind of assay: Bioassay for apoptosis (apoptotic EC50). It is filed as cell-based, human. Conditions: for apoptotic EC50: ME-180, unit not given, in µg/mL. The method, then:
as §1

A further assay concerns MCF-7. Kind of assay: Bioassay for apoptosis (apoptotic EC50). The assay is classed as cell-based, human. The settings on record: for EC50: Homo sapiens, MCF7, MCF-7, unit inferred. The method, then: as §1
Another assay has as its system MDA-MB-231. Kind of assay: Bioassay for apoptosis (apoptotic EC50). The settings on record: for EC50: Homo sapiens, MDA-MB-231, MDA-MB-231, unit inferred. The assay is classed as cell-based, human. The method, then:
as §1

For a further assay, the system named is MDA-MB-435. Kind of assay: Bioassay for apoptosis (apoptotic EC50). It is filed as cell-based, human. Conditions: for EC50: Homo sapiens, MDA-MB-435, MDA-MB-435, unit inferred, read-out: apoptotic EC50; for apoptotic EC50: MDA-MB-435, unit not given. The method, then: as §1
The test system of another assay is C-170. Kind of assay: Bioassay for apoptosis (apoptotic EC50). It is filed as cell-based, human. The method, then:
as §1

Another assay has as its system RL-95-2. Kind of assay: Bioassay for apoptosis (apoptotic EC50). The assay is classed as cell-based, human. The settings on record: Homo sapiens, RL95-2, RL-95-2; unit inferred. The method, then: as §1
The next assay has as its system PC-3. Kind of assay: Bioassay for apoptosis (apoptotic EC50). It is filed as cell-based, human. Conditions: PC-3; unit not given; in µg/mL. The method, then: as §1
A further assay has as its system HL-60. Kind of assay: Bioassay for apoptosis (apoptotic EC50). The settings on record: HL-60; unit not given; in µg/mL. The assay is classed as cell-based, human. The method, then:
as §1

The next assay relates to LnCaP. Kind of assay: Bioassay for apoptosis (apoptotic EC50). It is filed as cell-based, human. The method, then:
as §1

In assay [2] the test system is HT-29 Human Colon Cancer Cells Transplanted into Nude Mice. Kind of assay: Preclinical chemotherapeutic xenograft study. The assay is classed as in vivo. Conditions: for Mean tumor Weights (mg) Following Treatments / Percent mean tumor weight gain (mg) following treatments: positive control 30 mg/kg daily for 5 days. The method, then: (§2) For the preclinical chemotherapeutic studies, in the absence of an maximum tolerated dose, the mice are supplemented with 30 and 20 mgs/0.1 ml by gavage daily for 21 days. Compound 1 is dissolved in 100% ethanol at 2 grams of compound 1/5 mls of ethanol, and diluted in peanut oil (nonsupplemented vitamin E) to yield 30 and 20 mgs of compound 1 per 0.1 ml. Vehicle control consisted of a mixture of ethanol and peanut oil equivalents. The preclinical chemotherapeutic studies are conducted with compound 1, utilizing human MDA-MB-435 human breast cancer cells, human DU-145 prostate cancer cells, and human HT-20 colon tumor cells transplanted into Balb/c immune compromised nude mice.
(§3) A total of 40 immune compromised nude mice are utilized for testing each test compound (two treatment groups at 20 and 30 mg/day) in each tumor cell type. […] Tumor cells are transplanted subcutaneously into the left flank and permitted to grow to approximately 70 mg in size, test compound treatments by daily gavage are initiated, and continue for a total of 21 days. Mice are monitored daily for tumor size by caliper measurements. Mice are treated for 21 days; however, the mice are sacrificed when the tumors of the vehicle control reached 500 mg in weight. At the completion of the protocol, tumors are excised and tumor size established by weight. At the time of sacrifice, serum, tumor, and heart muscle are taken from animals in the two compound 1 test groups in order to establish levels of compound 1 via HPLC analyses (data not included). The chemotherapeutic effectiveness of compound 1 administered daily at 30 and 20 mgs/day is determined by comparing the tumor size of the two treatment groups with the vehicle control group for each of the three tumor types, and by comparing the size of the tumor in the two treatment groups with the tumor group from the positive control. Treatment is for 21 days, experiments are continued until mean weight of tumor for vehicle control reaches 500 mgs.

Assay [3] concerns DU-145 Human Prostate Cancer Cells Transplanted into Nude Mice. Kind of assay: Preclinical chemotherapeutic xenograft study. The assay is classed as in vivo. Conditions: for Mean tumor Weights (mg) Following Treatments / Percent mean tumor weight gain (mg) following treatments: positive control 1 mg/kg i.v. daily for 5 days. The method, then:
as §2, §3

The subject of assay [4] is MDA-MB-435 Human Breast Cancer Cells Transplanted into Nude Mice. Kind of assay: Preclinical chemotherapeutic xenograft study. It is filed as in vivo. The settings on record: for Percent mean tumor weight gain (mg) following treatments / Mean tumor Weights (mg) Following Treatments: positive control 20 mg/kg i.p. daily for 5 days. The method, then: as §2, §3

For “2-(2,5,7,8-tetramethyl-(2R-(4R,8,12-trimethyltridecyl)chroman-6-yloxy)triethylammonium sulfate [Compound 21]”, the “growth inhibitory (apoptotic inducing) properties specific for human cancer cells” value (“growth inhibitory” for short) in [1] is given as “effective”. For the same compound, the “apoptotic EC50” value in the assay with ME-180 was 1-5.

For the compound `Cc1c(C)c2c(c(C)c1OCC(=O)O)CCC(C)(CCCC(C)CCCC(C)CCCC(C)C)O2` (racemic) [Compound 15, 2,5,7,8-tetramethyl-(2RS-(4RS,8RS,12-trimethyltridcyl)chroman-6-yloxy)acetic acid], the “growth inhibitory” value in assay [1] is listed as “effective”. Also, the EC50 (usually the concentration needed to bring the measured effect to its halfway point) is 20 to 30 µg/mL (≈ 40.9 to 61.4 µM) with MCF-7; > 20 µg/mL in the assay with ME-180 (Homo sapiens, ME-180, ME-180, unit inferred); 20 to 30 µg/mL (≈ 40.9 to 61.4 µM) with MDA-MB-231; 20 to 30 µg/mL (≈ 40.9 to 61.4 µM) with MDA-MB-435; > 20 µg/mL in the assay with C-170 (Homo sapiens, C170, C-170, unit inferred); > 20 µg/mL in the assay on RL-95-2.

With `Cc1c(C)c2c(c(C)c1OCCC(=O)O)CC[C@@](C)(CCC[C@H](C)CCC[C@H](C)CCCC(C)C)O2` [Compound 2, 2,5,7,8-tetramethyl-(2R-(4R,8R,12-trimethyltridecyl)chroman-6-yloxy) propionic acid], in [1], the “growth inhibitory” value was “effective”. The “apoptotic EC50” value in the assay with PC-3 was 5-10; in the assay on HL-60 it was 10-20; in the assay on MCF-7 (MCF-7, unit not given, in µg/mL), 20-30; with ME-180 it was 5-10; in the assay on MDA-MB-231 (MDA-MB-231, unit not given, in µg/mL), 10-20; in the assay on MDA-MB-435 (in µg/mL) it was 10-20. Further, the “apoptotic EC50” value with C-170 (C-170, unit not given, in µg/mL) is 10-20; in the assay with LnCaP (unit not given, in µg/mL), 5-10.

For the compound `O=c1[nH]cc(F)c(=O)[nH]1` [Compound 5-FU, 5 Fluorouracil, reference compound], the “Mean tumor Weights (mg) Following Treatments” value (“Mean tumor Weights” below) in [2] (day 1) was 59.3 mg; in assay [2] (day 5), 87.5 mg; in [2] (day 8), 105.8 mg; in assay [2] (day 12) it was 145.8 mg; in assay [2] (day 15), 141.6 mg; in assay [2] (day 19), 212.3 mg. In addition, in assay [2] (day 22), the “Mean tumor Weights” value is reported as 255.5 mg. Moreover, the “Percent mean tumor weight gain (mg) following treatments” value (“Percent mean tumor weight gain” below) worked out at 100% in assay [2] (day 1); 147.6% in [2] (day 5); 178.4% in assay [2] (day 8); 245.9% in assay [2] (day 12); 247.2% in [2] (day 15); 358.0% in [2] (day 19). Also, the “Percent mean tumor weight gain” value in [2] (day 22) was found to be 430.0%. In addition, the “reduction of mean tumor growth vs vehicle control” value (“reduction of mean tumor growth” for short) in [2] (positive control, 30 mg/kg daily for 5 days) is listed as 31.4%.

As to `Cc1c(C)c2c(c(C)c1OCC(=O)O)CC[C@](C)(C(=O)O)O2` [Compound 16], the 50% effective concentration (EC50) with MCF-7, in the assay with MDA-MB-231 and in the assay with MDA-MB-435 was > 20 µg/mL each time.

Take `C/C(=C\CSc1cc(C)c(OCC(=O)O)c(C)c1C)CCCC(C)CCCC(C)CCCC(C)C` (stereo not drawn) [Compound 27, E.Z,RS,RS,RS-(phytyltrimethylbenzenethiol-6-yloxy)acetic acid]: in assay [1], the “growth inhibitory” value was “effective”. Besides, the EC50 in the assay on MCF-7 was in the range of 10 to 20 µg/mL (≈ 19.8 to 39.6 µM); with LnCaP (Homo sapiens, unit inferred), 10 to 20 µg/mL (≈ 19.8 to 39.6 µM).

In the case of `Cc1c(C)c(OCC(=O)O)c(C)c2c1NC(C)(CCCC(C)CCCC(C)CCCC(C)C)CC2` (stereo not drawn) [Compound 39, 1-Aza-α-tocopherol-6-yloxyl-acetic acid], the “growth inhibitory” value in assay [1] is reported as “effective”. In the assay on MDA-MB-435 (in µg/mL), the “apoptotic EC50” value was 10-20.

Regarding `Cc1c(C)c2c(c(C)c1N=Nc1ccc([N+](=O)[O-])cc1[N+](=O)[O-])CCC(C)(CCCC(C)CCCC(C)CCCC(C)C)N2` (stereo not shown) [Compound 43], the “apoptotic EC50” value with MDA-MB-435 is “PPT”.

On to `O=C1c2c(O)ccc(O)c2C(=O)c2c(NCCNCCO)ccc(NCCNCCO)c21` [Mitoxantrone, reference compound], for which the “Mean tumor Weights” value is 66.8 mg in assay [3] (day 1); 107.2 mg in assay [3] (day 5); 141.1 mg in [3] (day 8); 185.4 mg in [3] (day 12); 205.2 mg in assay [3] (day 15); 325.3 mg in [3] (day 19). Also, the “Mean tumor Weights” value in assay [3] (day 22) was found to be 389.4 mg. Besides, the “Percent mean tumor weight gain” value in [3] (day 1) was 100%; in [3] (day 5) it was 160.5%; in [3] (day 8) it was 211.2%; in assay [3] (day 12), 277.5%; in assay [3] (day 15), 307.2%; in [3] (day 19) it was 487.0%. For the same compound, in assay [3] (day 22), the “Percent mean tumor weight gain” value is 582.9%. For the same compound, the “reduction of mean tumor growth” value in [3] (positive control, 1 mg/kg daily intravenously for 5 days) is 27.9%.

As to `CC(=O)O[C@H]1C(=O)[C@@]2(C)[C@H]([C@H](OC(=O)c3ccccc3)[C@]3(O)C[C@H](OC(=O)[C@H](O)[C@@H](NC(=O)c4ccccc4)c4ccccc4)C(C)=C1C3(C)C)[C@]1(OC(C)=O)CO[C@@H]1C[C@@H]2O` [Taxol, reference compound], the “Percent mean tumor weight gain” value is given as 100% in assay [4] (day 1); 101.1% in [4] (day 4); −46.0% in [4] (day 7); −83.7% in assay [4] (day 10); −91.8% in assay [4] (day 14); −99.5% in assay [4] (day 17). For the same compound, the “Percent mean tumor weight gain” value in assay [4] (day 21) was −90.3%. The “Mean tumor Weights” value was 38.2 mg in assay [4] (day 7); 11.7 mg in [4] (day 10); 5.7 mg in [4] (day 14); 3.6 mg in [4] (day 17); 6.8 mg in assay [4] (day 21). The “reduction of mean tumor growth” value in [4] (positive control, 20 mg/kg intraperitoneally daily for 5 days) was determined as 90.3%.
